Measurements from patent US11345912B2, “Directed evolution of multivalent glycopeptides that tightly bind to target proteins” (Brandeis University, priority 2013, dated 2022).
*1 amine or outer side, *2 acyl side, *3 side chain or, on linkers, in order; H or OH if unused. [ ]: non-standard residue; d: D form. The star is where a group is joined. X1 = O=C([C@H](CCc1cn(C2CCC(OC3O[C@H](CO[C@H]4O[C@H](CO[C@H]5O[C@H](CO)[C@@H](O)[C@H](O)[C@@H]5O[C@H]5O[C@H](CO)[C@@H](O)[C@H](O)[C@@H]5O)[C@@H](O)[C@H](O[C@H]5O[C@H](CO)[C@@H](O)[C@H](O)[C@@H]5O[C@H]5O[C@H](CO)[C@@H](O)[C@H](O)[C@@H]5O)[C@@H]4O)[C@@H](O)[C@H](O[C@H]4O[C@H](CO)[C@@H](O)[C@H](O)[C@@H]4O[C@H]4O[C@H](CO)[C@@H](O)[C@H](O)[C@@H]4O[C@H]4O[C@H](CO)[C@@H](O)[C@H](O)[C@@H]4O)[C@@H]3O)CC2)nn1)N[*:1])[*:2]; For = O=C*

System: 2G12
Assay: Binding curve and KD determination of 2G12-glycopeptide interaction (radiolabeled glycopeptide, protein G magnetic bead capture, scintillation counting)
Procedure, shortened: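 Radiolabeled glycopeptide (<4 pmol) from PURE-system translation with click glycosylation was incubated with 100 nM 2G12 at room temperature. Complexes were captured on protein G beads and eluted at 70° C. Bound and unbound fractions were counted by scintillation, run at least in triplicate, and KD derived from binding curves.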

[1] = Table 4, maximal fraction bound from curve fit, error = standard error of fit
[2] = Table 4, ribosomally translated radiolabeled glycopeptide with His6/FLAG tag, room temperature, fit Fbound=(Fmax[2G12])/(KD+[2G12]), error = standard error of fit

Compound | Fmax [%] [1] [%] | Kd [2] [nM] | Fmax [%] (Table 6 mutational analysis, radioactive bead binding assay) | Kd (Table 6 mutational analysis, radioactive bead binding assay, ribosomally translated) [nM]
CC[C@H](C)[C@H](NC(=O)[C@H](CCC(=O)O)NC(=O)CNC(=O)[C@H](Cc1c[nH]c2ccccc12)NC(=O)[C@@H](NC(=O)[C@@H](NC(=O)[C@@H]1CCCN1C(=O)[C@H](CCc1cn(C2CCC(OC3O[C@H](CO[C@H]4O[C@H](CO[C@H]5O[C@H](CO)[C@@H](O)[C@H](O)[C@@H]5O[C@H]5O[C@H](CO)[C@@H](O)[C@H](O)[C@@H]5O)[C@@H](O)[C@H](O[C@H]5O[C@H](CO)[C@@H](O)[C@H](O)[C@@H]5O[C@H]5O[C@H](CO)[C@@H](O)[C@H](O)[C@@H]5O)[C@@H]4O)[C@@H](O)[C@H](O[C@H]4O[C@H](CO)[C@@H](O)[C@H](O)[C@@H]4O[C@H]4O[C@H](CO)[C@@H](O)[C@H](O)[C@@H]4O[C@H]4O[C@H](CO)[C@@H](O)[C@H](O)[C@@H]4O)[C@@H]3O)CC2)nn1)NC(=O)[C@H](CC(C)C)NC(=O)[C@H](Cc1ccc(O)cc1)NC(=O)[C@@H](NC(=O)[C@H](Cc1ccc(O)cc1)NC(=O)[C@@H](NC(=O)[C@@H]1CCCN1C(=O)[C@@H](NC(=O)[C@H](CO)NC(=O)[C@H](CC(C)C)NC(=O)[C@H](CCc1cn(C2CCC(OC3O[C@H](CO[C@H]4O[C@H](CO[C@H]5O[C@H](CO)[C@@H](O)[C@H](O)[C@@H]5O[C@H]5O[C@H](CO)[C@@H](O)[C@H](O)[C@@H]5O)[C@@H](O)[C@H](O[C@H]5O[C@H](CO)[C@@H](O)[C@H](O)[C@@H]5O[C@H]5O[C@H](CO)[C@@H](O)[C@H](O)[C@@H]5O)[C@@H]4O)[C@@H](O)[C@H](O[C@H]4O[C@H](CO)[C@@H](O)[C@H](O)[C@@H]4O[C@H]4O[C@H](CO)[C@@H](O)[C@H](O)[C@@H]4O[C@H]4O[C@H](CO)[C@@H](O)[C@H](O)[C@@H]4O)[C@@H]3O)CC2)nn1)NC(=O)[C@H](CCCNC(=N)N)NC(=O)[C@H](Cc1ccccc1)NC(=O)[C@@H]1CCCN1C(=O)[C@H](CC(N)=O)NC(=O)[C@@H](NC(=O)[C@H](CC(N)=O)NC(=O)[C@@H](NC(=O)[C@H](CO)NC(=O)[C@@H](NC(=O)[C@@H](NC(=O)[C@@H](NC(=O)[C@@H]1CCCN1C(=O)[C@H](CC(C)C)NC(=O)[C@@H](NC(=O)[C@H](CCc1cn(C2CCC(OC3O[C@H](CO[C@H]4O[C@H](CO[C@H]5O[C@H](CO)[C@@H](O)[C@H](O)[C@@H]5O[C@H]5O[C@H](CO)[C@@H](O)[C@H](O)[C@@H]5O)[C@@H](O)[C@H](O[C@H]5O[C@H](CO)[C@@H](O)[C@H](O)[C@@H]5O[C@H]5O[C@H](CO)[C@@H](O)[C@H](O)[C@@H]5O)[C@@H]4O)[C@@H](O)[C@H](O[C@H]4O[C@H](CO)[C@@H](O)[C@H](O)[C@@H]4O[C@H]4O[C@H](CO)[C@@H](O)[C@H](O)[C@@H]4O[C@H]4O[C@H](CO)[C@@H](O)[C@H](O)[C@@H]4O)[C@@H]3O)CC2)nn1)NC=O)C(C)C)[C@@H](C)O)[C@@H](C)CC)[C@@H](C)CC)[C@@H](C)O)C(C)C)[C@@H](C)CC)[C@@H](C)O)[C@@H](C)O)[C@@H](C)CC)[C@@H](C)O)C(=O)NCC(=O)N[C@@H](CO)C(=O)NCC(=O)N[C@@H](CO)C(=O)N[C@@H](CC(C)C)C(=O)NCC(=O)N[C@@H](Cc1c[nH]cn1)C(=O)N[C@@H](Cc1c[nH]cn1)C(=O)N[C@@H](Cc1c[nH]cn1)C(=O)N[C@@H](Cc1c[nH]cn1)C(=O)N[C@@H](Cc1c[nH]cn1)C(=O)N[C@@H](Cc1c[nH]cn1)C(=O)N[C@@H](CCCNC(=N)N)C(=O)N[C@@H](CC(=O)O)C(=O)N[C@@H](Cc1ccc(O)cc1)C(=O)N[C@@H](CCCCN)C(=O)N[C@@H](CC(=O)O)C(=O)N[C@@H](CC(=O)O)C(=O)N[C@@H](CC(=O)O)C(=O)N[C@@H](CC(=O)O)C(=O)N[C@@H](CCCCN)C(=O)O (stereo partly shown) [Clone 10V8, XVLPTIISTNVNPFRXLSIPTYTYLXPITWGEI] | 94 ± 2.0 | 4.6 ± 0.34 | – | –
CC[C@H](C)[C@H](NC(=O)[C@H](CO)NC(=O)[C@@H](NC(=O)[C@H](CCc1cn(C2CCC(OC3O[C@H](CO[C@H]4O[C@H](CO[C@H]5O[C@H](CO)[C@@H](O)[C@H](O)[C@@H]5O[C@H]5O[C@H](CO)[C@@H](O)[C@H](O)[C@@H]5O)[C@@H](O)[C@H](O[C@H]5O[C@H](CO)[C@@H](O)[C@H](O)[C@@H]5O[C@H]5O[C@H](CO)[C@@H](O)[C@H](O)[C@@H]5O)[C@@H]4O)[C@@H](O)[C@H](O[C@H]4O[C@H](CO)[C@@H](O)[C@H](O)[C@@H]4O[C@H]4O[C@H](CO)[C@@H](O)[C@H](O)[C@@H]4O[C@H]4O[C@H](CO)[C@@H](O)[C@H](O)[C@@H]4O)[C@@H]3O)CC2)nn1)NC=O)[C@@H](C)O)C(=O)N1CCC[C@H]1C(=O)N[C@@H](Cc1ccc(O)cc1)C(=O)N[C@H](C(=O)N[C@@H](Cc1ccc(O)cc1)C(=O)N[C@@H](CC(C)C)C(=O)N[C@@H](CC(N)=O)C(=O)N[C@@H](CCCNC(=N)N)C(=O)N[C@@H](CO)C(=O)N[C@@H](CC(C)C)C(=O)N[C@@H](Cc1c[nH]c2ccccc12)C(=O)N[C@H](C(=O)N[C@@H](CC(N)=O)C(=O)N[C@@H](Cc1ccc(O)cc1)C(=O)N[C@@H](CCCNC(=N)N)C(=O)N[C@H](C(=O)N[C@@H](CC(N)=O)C(=O)N[C@@H](CO)C(=O)N[C@@H](Cc1c[nH]c2ccccc12)C(=O)N[C@@H](CO)C(=O)N[C@@H](CCc1cn(C2CCC(OC3O[C@H](CO[C@H]4O[C@H](CO[C@H]5O[C@H](CO)[C@@H](O)[C@H](O)[C@@H]5O[C@H]5O[C@H](CO)[C@@H](O)[C@H](O)[C@@H]5O)[C@@H](O)[C@H](O[C@H]5O[C@H](CO)[C@@H](O)[C@H](O)[C@@H]5O[C@H]5O[C@H](CO)[C@@H](O)[C@H](O)[C@@H]5O)[C@@H]4O)[C@@H](O)[C@H](O[C@H]4O[C@H](CO)[C@@H](O)[C@H](O)[C@@H]4O[C@H]4O[C@H](CO)[C@@H](O)[C@H](O)[C@@H]4O[C@H]4O[C@H](CO)[C@@H](O)[C@H](O)[C@@H]4O)[C@@H]3O)CC2)nn1)C(=O)N[C@@H](CO)C(=O)N[C@@H](CCCCN)C(=O)N[C@@H](CC(N)=O)C(=O)N[C@H](C(=O)N[C@@H](CC(N)=O)C(=O)N[C@H](C(=O)N[C@@H](CCc1cn(C2CCC(OC3O[C@H](CO[C@H]4O[C@H](CO[C@H]5O[C@H](CO)[C@@H](O)[C@H](O)[C@@H]5O[C@H]5O[C@H](CO)[C@@H](O)[C@H](O)[C@@H]5O)[C@@H](O)[C@H](O[C@H]5O[C@H](CO)[C@@H](O)[C@H](O)[C@@H]5O[C@H]5O[C@H](CO)[C@@H](O)[C@H](O)[C@@H]5O)[C@@H]4O)[C@@H](O)[C@H](O[C@H]4O[C@H](CO)[C@@H](O)[C@H](O)[C@@H]4O[C@H]4O[C@H](CO)[C@@H](O)[C@H](O)[C@@H]4O[C@H]4O[C@H](CO)[C@@H](O)[C@H](O)[C@@H]4O)[C@@H]3O)CC2)nn1)C(=O)N1CCC[C@H]1C(=O)N[C@@H](CC(C)C)C(=O)NCC(=O)N[C@@H](CO)C(=O)NCC(=O)N[C@@H](CO)C(=O)N[C@@H](CC(C)C)C(=O)NCC(=O)N[C@@H](Cc1c[nH]cn1)C(=O)N[C@@H](Cc1c[nH]cn1)C(=O)N[C@@H](Cc1c[nH]cn1)C(=O)N[C@@H](Cc1c[nH]cn1)C(=O)N[C@@H](Cc1c[nH]cn1)C(=O)N[C@@H](Cc1c[nH]cn1)C(=O)N[C@@H](CCCNC(=N)N)C(=O)N[C@@H](CC(=O)O)C(=O)N[C@@H](Cc1ccc(O)cc1)C(=O)N[C@@H](CCCCN)C(=O)N[C@@H](CC(=O)O)C(=O)N[C@@H](CC(=O)O)C(=O)N[C@@H](CC(=O)O)C(=O)N[C@@H](CC(=O)O)C(=O)N[C@@H](CCCCN)C(=O)O)C(C)C)C(C)C)C(C)C)[C@@H](C)O)[C@@H](C)O (stereo partly shown) [Clone 10V9, XTSIPYTYLNRSLWTNYRVNSWSXSKNVNVXPL] | 85 ± 0.68 | 3.9 ± 0.11 | – | –
For-[X1]PNCITQQDVR[X1]TSIPYTYTWPGSGSLGHHHHHHRDYKDDDDK-OH [Clone 10F3-Δ11, XPNCITQQDVRXTSIPYTYTWP] | – | – | 32 | 25
XIRXRTPTSRLXSTXRGXTXNXTSXITPRNDXI [Clone 7V8] | 108 ± 12 | – | – | –
